Measurements as given in patent US20260355196A1, “INHIBITORS AND DEGRADERS OF PIP4K PROTEIN” (Larkspur Biosciences, Inc., priority 2023, published 2026).

Molecular target: T1, PIP4K2C (Homo sapiens, UniProt Q8TBX8)
T1 sequence (Q8TBX8 1-421): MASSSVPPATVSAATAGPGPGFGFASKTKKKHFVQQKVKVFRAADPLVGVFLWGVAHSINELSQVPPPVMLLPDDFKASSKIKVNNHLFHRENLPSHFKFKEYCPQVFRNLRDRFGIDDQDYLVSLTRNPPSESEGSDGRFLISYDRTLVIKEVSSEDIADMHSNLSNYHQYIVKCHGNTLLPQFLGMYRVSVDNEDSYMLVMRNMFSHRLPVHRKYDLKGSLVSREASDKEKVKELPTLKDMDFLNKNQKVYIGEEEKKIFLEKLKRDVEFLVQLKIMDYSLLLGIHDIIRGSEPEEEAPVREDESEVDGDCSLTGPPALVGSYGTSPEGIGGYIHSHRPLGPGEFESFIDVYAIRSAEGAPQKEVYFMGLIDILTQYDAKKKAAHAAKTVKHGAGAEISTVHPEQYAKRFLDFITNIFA
Assay: HiBiT PIP4K2C degradation assay in MOLT-4 cells (endogenous PIP4K2C C-terminally tagged with HiBiT)
Assay type: cell-based
Parameters: untagged in primary human PBMCs and monocyte-derived dendritic cells
Conditions: 6 hours of incubation time, rather than 24 hours; MOLT-4, top concentration 10 micromolar; read-out: HiBIT-degradation MOLT4 PIP4k2C DC50 (6 hours, marked *)
Procedure, shortened: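 Endogenous PIP4K2C was C-terminally HiBiT-tagged by CRISPR-Cas9 in MOLT-4 cells, which were treated with a 10-point, 3-fold dilution series from 10 micromolar in duplicate for 24 or 6 hours at 37 C. Remaining protein was read by HiBiT lytic luminescence, and DC50 came from a Hill fit.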

SMILES | DC50 [nM]
O=C1CCC(Nc2ccc(N3CCC(OC4CCN(C(=O)[C@H]5CC[C@H](Nc6ncc(F)c(-c7cccc(-c8ccc[nH]c8=O)c7)n6)CC5)CC4)CC3)c(F)c2)C(=O)N1 (stereo partly drawn) [Compound 403, trans-3-((3-fluoro-4-(4-((1-(4-((5-fluoro-4-(3-(2-oxo-1,2-dihydropyridin-3-yl)phenyl)pyrimidin-2-yl)amino)cyclohexane-1-carbonyl)piperidin-4-yl)oxy)piperidin-1-yl)phenyl)amino)piperidine-2,6-dione] | < 500
Cn1nc(C2CCC(=O)NC2=O)c2ccc(N3CCN([C@H]4CC[C@H](NC(=O)[C@H]5CC[C@H](Nc6ncc(F)c(-c7cccc(-c8ccc[nH]c8=O)c7)n6)CC5)CC4)CC3)cc21 (stereo partly drawn) [Compound 404, trans-(1r,4R)—N-((1r,4R)-4-(4-(3-(2,6-dioxopiperidin-3-yl)-1-methyl-1H-indazol-6-yl)piperazin-1-yl)cyclohexyl)-4-((5-fluoro-4-(3-(2-oxo-1,2-dihydropyridin-3-yl)phenyl)pyrimidin-2-yl)amino)cyclohexane-1-carboxamide] | > 5000
O=C1CCC(Nc2ccc(N3CCC(N4CCC(C(=O)N[C@H]5CC[C@H](Nc6ncc(F)c(-c7cccc(-n8ccccc8=O)c7)n6)CC5)CC4)C(F)C3)c(F)c2)C(=O)N1 (some centres unmarked) [Compound 405, 1′-(4-((2,6-dioxopiperidin-3-yl)amino)-2-fluorophenyl)-3′-fluoro-N-((1r,4r)-4-((5-fluoro-4-(3-(2-oxopyridin-1(2H)-yl)phenyl)pyrimidin-2-yl)amino)cyclohexyl)-[1,4′-bipiperidine]-4-carboxamide] | < 500
O=C1CCC(Nc2ccc(N3CCC(N4CCC(C(=O)N[C@H]5CC[C@H](Nc6ncc(F)c(-c7cccc(-c8ccc[nH]c8=O)c7)n6)CC5)CC4)C(F)C3)c(F)c2)C(=O)N1 (some centres unmarked) [Compound 406, 1′-(4-((2,6-dioxopiperidin-3-yl)amino)-2-fluorophenyl)-3′-fluoro-N-((1r,4r)-4-((5-fluoro-4-(3-(2-oxo-1,2-dihydropyridin-3-yl)phenyl)pyrimidin-2-yl)amino)cyclohexyl)-[1,4′-bipiperidine]-4-carboxamide] | < 500
O=C1CCC(Nc2ccc(N3CCC(CC4CCN(C(=O)[C@H]5CC[C@H](Nc6ncc(F)c(-c7cccc(-c8ccc[nH]c8=O)c7)n6)CC5)CC4)CC3)c(F)c2)C(=O)N1 (stereo partly drawn) [Compound 407, trans-3-((3-fluoro-4-(4-((1-(4-((5-fluoro-4-(3-(2-oxo-1,2-dihydropyridin-3-yl)phenyl)pyrimidin-2-yl)amino)cyclohexane-1-carbonyl)piperidin-4-yl)methyl)piperidin-1-yl)phenyl)amino)piperidine-2,6-dione] | < 500
O=C1CCC(Nc2ccc(C3CCN(CC4CCN(C(=O)[C@H]5CC[C@H](Nc6ncc(F)c(-c7cccc(-c8ccc[nH]c8=O)c7)n6)CC5)CC4)CC3(F)F)c(F)c2)C(=O)N1 (stereo partly drawn) [Compound 408, trans-3-[4-[3,3-difluoro-1-[[1-[4-[[5-fluoro-4-[3-(2-oxo-1H-pyridin-3-yl)phenyl]pyrimidin-2-yl]amino]cyclohexanecarbonyl]-4-piperidyl]methyl]-4-piperidyl]-3-fluoro-anilino]piperidine-2,6-dione] | < 500
O=C1CCC(Nc2ccc(C3CCN(CC4(O)CCN(C(=O)[C@H]5CC[C@H](Nc6ncc(F)c(-c7cccc(-n8ccccc8=O)c7)n6)CC5)CC4)CC3)c(F)c2)C(=O)N1 (stereo partly drawn) [Compound 409, trans-3-((3-fluoro-4-(1-((1-(-4-((5-fluoro-4-(3-(2-oxopyridin-1(2H)-yl)phenyl)pyrimidin-2-yl)amino)cyclohexane-1-carbonyl)-4-hydroxypiperidin-4-yl)methyl)piperidin-4-yl)phenyl)amino)piperidine-2,6-dione] | < 500
O=C1CCC(Nc2ccc(N3CCC(O)(CN4CCN(C(=O)[C@H]5CC[C@H](Nc6ncc(F)c(-c7cccc(-n8ccccc8=O)c7)n6)CC5)CC4)CC3)c(F)c2)C(=O)N1 (stereo partly drawn) [Compound 410, trans-3-((3-fluoro-4-(4-((4-(4-((5-fluoro-4-(3-(2-oxopyridin-1(2H)-yl)phenyl)pyrimidin-2-yl)amino)cyclohexane-1-carbonyl)piperazin-1-yl)methyl)-4-hydroxypiperidin-1-yl)phenyl)amino)piperidine-2,6-dione] | < 500
O=C1CCC(Nc2ccc(N3CCN([C@H]4CC[C@H](C(=O)N[C@H]5CC[C@H](Nc6ncc(F)c(-c7cccc(N8CCOC8=O)c7)n6)CC5)CC4)CC3)c(F)c2)C(=O)N1 (stereo partly drawn) [Compound 411, trans-(1r,4R)-4-(4-(4-((2,6-dioxopiperidin-3-yl)amino)-2-fluorophenyl)piperazin-1-yl)-N-((1r,4R)-4-((5-fluoro-4-(3-(2-oxooxazolidin-3-yl)phenyl)pyrimidin-2-yl)amino)cyclohexyl)cyclohexane-1-carboxamide] | > 5000
O=C1CC[C@@H](Nc2ccc(N3CCN([C@H]4CC[C@H](C(=O)N[C@H]5CC[C@H](Nc6ncc(F)c(-c7cccc(N8CCCCC8=O)c7)n6)CC5)CC4)CC3)c(F)c2)C(=O)N1 [Compound 412, trans-(1r,4R)-4-(4-(4-((2,6-dioxopiperidin-3-yl)amino)-2-fluorophenyl)piperazin-1-yl)-N-((1r,4R)-4-((5-fluoro-4-(3-(2-oxopiperidin-1-yl)phenyl)pyrimidin-2-yl)amino)cyclohexyl)cyclohexane-1-carboxamide] | < 500
O=C1CCC(Nc2ccc(N3CCC(OC4CCN(C(=O)[C@H]5CC[C@H](Nc6ncc(F)c(-c7cccc(N8CCCCC8=O)c7)n6)CC5)CC4)CC3)c(F)c2)C(=O)N1 (stereo partly drawn) [Compound 413, trans-3-((3-fluoro-4-(4-((1-(4-((5-fluoro-4-(3-(2-oxopiperidin-1-yl)phenyl)pyrimidin-2-yl)amino)cyclohexane-1-carbonyl)piperidin-4-yl)oxy)piperidin-1-yl)phenyl)amino)piperidine-2,6-dione] | < 500
O=C1CCC(Nc2ccc(N3CCC(CC4CCN(C(=O)[C@H]5CC[C@H](Nc6ncc(F)c(-c7cccc(N8CCCCC8=O)c7)n6)CC5)CC4)CC3)c(F)c2)C(=O)N1 (stereo partly drawn) [Compound 414, trans-3-((3-fluoro-4-(4-((1-(-4-((5-fluoro-4-(3-(2-oxopiperidin-1-yl)phenyl)pyrimidin-2-yl)amino)cyclohexane-1-carbonyl)piperidin-4-yl)methyl)piperidin-1-yl)phenyl)amino)piperidine-2,6-dione] | < 500
O=C1CCC(Nc2ccc(N3CCC(CN4CCN(C(=O)[C@H]5CC[C@H](Nc6ncc(F)c(-c7cccc(N8CCCCC8=O)c7)n6)CC5)CC4)CC3)c(F)c2)C(=O)N1 (stereo partly drawn) [Compound 415, trans-3-((3-fluoro-4-(4-((4-(4-((5-fluoro-4-(3-(2-oxopiperidin-1-yl)phenyl)pyrimidin-2-yl)amino)cyclohexane-1-carbonyl)piperazin-1-yl)methyl)piperidin-1-yl)phenyl)amino)piperidine-2,6-dione] | < 500
O=C1CCC(Nc2ccc(N3CCN(C[C@H]4CC[C@H](CNC(=O)[C@H]5CC[C@H](Nc6ncc(F)c(-c7cccc(-n8ccccc8=O)c7)n6)CC5)CC4)CC3)c(F)c2)C(=O)N1 (stereo partly drawn) [Compound 416, trans-N-((trans-4-((4-(4-((2,6-dioxopiperidin-3-yl)amino)-2-fluorophenyl)piperazin-1-yl)methyl)cyclohexyl)methyl)-4-((5-fluoro-4-(3-(2-oxopyridin-1(2H)-yl)phenyl)pyrimidin-2-yl)amino)cyclohexane-1-carboxamide] | < 500
Cn1nc(C2CCC(=O)NC2=O)c2ccc(N3CCN(CC4CCN(C(=O)[C@H]5CC[C@H](Nc6ncc(F)c(-c7cccc(-c8ccc[nH]c8=O)c7)n6)CC5)CC4)CC3)cc21 (stereo partly drawn) [Compound 417, 3-(6-(4-((1-(trans-4-((5-fluoro-4-(3-(2-oxo-1,2-dihydropyridin-3-yl)phenyl)pyrimidin-2-yl)amino)cyclohexane-1-carbonyl)piperidin-4-yl)methyl)piperazin-1-yl)-1-methyl-1H-indazol-3-yl)piperidine-2,6-dione] | < 500
O=C1CCC(Nc2ccc(N3CCN([C@H]4CC[C@H](C(=O)N[C@H]5CC[C@H](Nc6ncc(F)c(-c7cccc(N8CCCOC8=O)c7)n6)CC5)CC4)CC3)c(F)c2)C(=O)N1 (stereo partly drawn) [Compound 424, trans-(1r,4R)-4-(4-(4-((2,6-dioxopiperidin-3-yl)amino)-2-fluorophenyl)piperazin-1-yl)-N-((1r,4R)-4-((5-fluoro-4-(3-(2-oxo-1,3-oxazinan-3-yl)phenyl)pyrimidin-2-yl)amino)cyclohexyl)cyclohexane-1-carboxamide] | < 500
O=C1CCC(Nc2ccc(N3CCC(CC4CCN(C(=O)[C@H]5CC[C@H](Nc6ncc(F)c(-c7cccc(N8CCCOC8=O)c7)n6)CC5)CC4)CC3)c(F)c2)C(=O)N1 (stereo partly drawn) [Compound 425, trans-3-((3-fluoro-4-(4-((1-(-4-((5-fluoro-4-(3-(2-oxo-1,3-oxazinan-3-yl)phenyl)pyrimidin-2-yl)amino)cyclohexane-1-carbonyl)piperidin-4-yl)methyl)piperidin-1-yl)phenyl)amino)piperidine-2,6-dione] | < 500
